# Test results: ChEMBL document CHEMBL1130573, “Anti-AIDS agents-XXVIII.1 Synthesis and Anti-HIV activity of methoxy substituted 3,4-Di-O-()-camphanoyl-(+)-cis-khellactone (DCK) analogues” (Bioorg Med Chem Lett, 1997)
# What was measured:
# H9 [1] = test: Anti-HIV activity was evaluated for the concentration that inhibits viral replication by 50%; assay type: functional, cell-based; conditions: Homo sapiens
# [2] = Therapeutic index is the ratio of IC50 of compound to that of EC50; conditions: read-out: Therapeutic index
# H9 [3] = test: Inhibitory activity against gorwth of uninfected H9 cell growth by 50%; assay type: functional, cell-based; conditions: Homo sapiens
Compound,EC50 (H9 [1]),selectivity ratio [2],IC50 (H9 [3])
COc1cc2ccc3c(c2oc1=O)[C@@H](OC(=O)C12CCC(C)(C(=O)O1)C2(C)C)[C@@H](OC(=O)C12CCC(C)(C(=O)O1)C2(C)C)C(C)(C)O3 (stereo partly specified),6 nM,> 25500,> 153000 nM
Cc1cn([C@H]2C[C@H](N=[N+]=[N-])[C@@H](CO)O2)c(=O)[nH]c1=O [ZIDOVUDINE],45 nM,,
COc1cc2ccc(=O)oc2c2c1OC(C)(C)[C@H](OC(=O)C13CCC(C)(C(=O)O1)C3(C)C)[C@@H]2OC(=O)C12CCC(C)(C(=O)O1)C2(C)C (stereo partly specified),24500 nM,> 9.68,> 153000 nM

# The next molecules have a lower EC50 (H9 [1]) than those just listed; values first:
EC50 (H9 [1]),Compound,selectivity ratio [2],IC50 (H9 [3])
0.138 nM,COc1cc2c(c3oc(=O)ccc13)[C@@H](OC(=O)C13CCC(C)(C(=O)O1)C3(C)C)[C@@H](OC(=O)C13CCC(C)(C(=O)O1)C3(C)C)C(C)(C)O2 (stereo partly specified),> 403000,> 153000 nM
0.256 nM,CC1(C)Oc2ccc3ccc(=O)oc3c2[C@@H](OC(=O)C23CCC(C)(C(=O)O2)C3(C)C)[C@H]1OC(=O)C12CCC(C)(C(=O)O1)C2(C)C (stereo partly specified),137000,35000 nM
2.76 nM,COc1cc(=O)oc2c3c(ccc12)OC(C)(C)[C@H](OC(=O)C12CCC(C)(C(=O)O1)C2(C)C)[C@@H]3OC(=O)C12CCC(C)(C(=O)O1)C2(C)C (stereo partly specified),> 51000,> 153000 nM
